Results: patent US20250121068A1, “BIFUNCTIONAL MOLECULES AS PROTEASOME STIMULATORS FOR IMPROVED TARGETED PROTEIN DEGRADATION, AND THEIR USES AS TARGETED BOOSTING DEGRADERS (TARBODS)” (BOOSTER THERAPEUTICS GMBH, priority 2021, published 2025)

Key:
a-synuclein = target: T1, a-synuclein (Homo sapiens, UniProt P37840); test: a-synuclein degradation in HEK293 cells (western blot); format: cell-based; settings: a-synuclein transfection 48 h, dosed 3 h at 25 μM with 50 μM cycloheximide, compared to DMSO and MO
T1 construct: expressed in transfected cells; host or cells: HEK293
Experimental: After a-synuclein transfection for 48 h, the compounds were dosed for 3 h at 25 μM together with 50 μM cycloheximide, and the total a-synuclein was determined using western blot. DMSO samples were used as control (dashed line).
FIGS. 2 to 4 show the results of the functional assay for the compounds of group I, FIG. 2 based on proteasome stimulation in vitro. The biochemical assay was performed with a purified human 20S proteasome. The compounds were incubated with 20S proteasomes for 1 h, and the proteasome activity was measured with a TAS-1 probe. DMSO samples were used as control. […] The inventive compounds are better stimulators than the activator alone (MO), especially when they have a longer linker, e.g. (PEG)4-5.

tau = tau degradation in HEK293 cells (western blot); format: cell-based; settings: tau transfection 48 h, dosed 16 h at 25 μM with 30 μM cycloheximide, DMSO control
Experimental: After tau transfection for 48 h, the compounds were dosed for 16 h at 25 μM together with 30 μM cycloheximide, and total tau was determined (western blot). DMSO samples were used as control (dashed line).
The biochemical assay was performed with a purified human 20S proteasome. The compounds were incubated with 20S proteasomes for 1 h, and the proteasome activity was measured with a TAS-1 probe. DMSO samples were used as control (dashed line). The inventive compounds are better stimulators than the activator alone (MO), especially when they have a longer linker, e.g., (PEG)4-5. […] For proteasome activity in HEK293 cells, the compounds were dosed for 1.5 h, and the proteasome activity measured with Me4BodipyFLAhx3L3VS activity probe. DMSO samples were used as control (dashed line). […] Compounds were dosed for 24 h, and the viability measured with CellTiter-Glo. DMSO samples were used as control (dashed line). […] After tau transfection for 48 h, the compounds were dosed for 16 h at 25 μM together with 30 μM cycloheximide, and total tau was determined (western blot). DMSO samples were used as control (dashed line).

Row | SMILES | a-synuclein degradation (total a-synuclein) (a-synuclein) | tau degradation (total tau) (tau)
1 | CNc1ccc(-c2nc3ccc(OCCOCCNC(=O)c4ccc(COC(Cn5ccnc5)c5ccc(Cl)cc5Cl)cc4)cc3s2)cc1 (stereo not drawn) [DS001, 4-((1-(2,4-dichlorophenyl)-2-(1H-imidazol-1-yl)ethoxy)methyl)-N-(2-(2-((2-(4-(methylamino)phenyl)benzo[d]thiazol-6-yl)oxy)ethoxy)ethyl)benzamide] | clear improvement in degrading a-synuclein | 
2 | CNc1ccc(-c2nc3ccc(OCCOCCOCCOCCNC(=O)c4ccc(COC(Cn5ccnc5)c5ccc(Cl)cc5Cl)cc4)cc3s2)cc1 (stereo not drawn) [DS003, 4-((1-(2,4-dichlorophenyl)-2-(1H-imidazol-1-yl)ethoxy)methyl)-N-(2-(2-(2-(2-((2-(4-(methylamino)phenyl)benzo[d]thiazol-6-yl)oxy)ethoxy)ethoxy)ethoxy)ethyl)benzamide] | clear improvement in degrading a-synuclein | 
3 | O=C(CCc1ccc2c(c1)[nH]c1ccncc12)NCCOCCNC(=O)c1ccc(COC(Cn2ccnc2)c2ccc(Cl)cc2Cl)cc1 (stereo not drawn) [DT-001, N-(2-(2-(3-(5H-pyrido[4,3-b]indol-7-yl)propanamido)ethoxy)ethyl)-4-((1-(2,4-dichlorophenyl)-2-(1H-imidazol-1-yl)ethoxy)methyl)benzamide] |  | clear tau degradation improvement
